Measurements from ChEMBL document CHEMBL5321267, “Phomactinine, the First Nitrogen-Bearing Phomactin, Produced by Biatriospora sp. CBMAI 1333” (J Nat Prod, 2023).
Calls of active or inactive are those of the source. No cut-off for these calls is given here.

Biological target: Platelet-activating factor receptor (Homo sapiens) (UniProt P25105)
Test: Antagonist activity at PAFR in human KB cells assessed as inhibition of cPAF induced IL-8 release at 10 to 25 uM preincubated for 24 hrs followed by cPAF stimulation and measured after 6 hrs by ELISA method
Format: functional, cell-based
Conditions: filed as antagonist, dose 10-25 µM, time 30.0 hrs

Sequence of Platelet-activating factor receptor (Homo sapiens) (P25105 whole entry): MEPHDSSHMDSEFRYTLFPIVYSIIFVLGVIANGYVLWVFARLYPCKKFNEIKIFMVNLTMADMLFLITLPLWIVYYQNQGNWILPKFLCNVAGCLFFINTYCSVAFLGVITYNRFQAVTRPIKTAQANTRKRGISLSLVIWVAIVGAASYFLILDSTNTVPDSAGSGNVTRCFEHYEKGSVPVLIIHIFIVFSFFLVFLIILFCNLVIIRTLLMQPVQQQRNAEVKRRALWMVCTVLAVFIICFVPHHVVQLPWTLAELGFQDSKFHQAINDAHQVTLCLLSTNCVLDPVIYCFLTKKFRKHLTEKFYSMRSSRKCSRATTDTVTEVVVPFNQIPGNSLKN

- inhibition: Active
Compound: C/C1=C\CC[C@@]2(C)O[C@@H]2[C@@]23C(=O)NC=C2[C@@](C)(CC1)[C@H](C)C[C@@H]3O
